This assay has as its system adhesion of normal human keratinocytes to type IV collagen. As to conditions: for A = adhesion in μg of protein per well (mean): keratinocytes of a donor, control 3.52; for percentage increase in adhesion: compared with control cultures.

The results in this text go back to patent publication US7678380B2, “Cosmetic treatment method for fighting against skin ageing effects” (LVMH Recherche, priority 1996, dated 2010).

Where two headings read alike, the source gives them in different places.

Protocol: Coating of the Adhesion Surfaces with Type IV Collagen
Wells of microplates (Falcon) are covered with 6 μg/cm^2 of sterile type IV human collagen (from Sigma).
Each well is then incubated overnight at +4° C. with a 4 mg/ml solution of bovine albumin, BSA, from Sigma.
The wells are then rinsed twice with a phosphate buffer, PBS (phosphate buffered saline), from Gibco.
Preparation of the Cultures of Normal Human Keratinocytes
The skin fragments are incubated in 0.25% w/v trypsin for 18 hours at +4° C. to separate the dermis and epidermis and to obtain, by agitation, a suspension of epidermal cells. The trypsin is neutralized with fetal calf serum, FCS, from Gibco.
The cells are inoculated into flasks defining a surface area of 75 cm^2 and are cultured in keratinocyte proliferation medium, K-SFM, from Gibco, to the point of confluence, when they are subcultured.
The cells used for the experiments for adhesion to the collagen substrate were not subcultured beyond the first subculture (called P0 or P1).
The keratinocytes are then incubated for 30 minutes at +4° C. before the step for adhesion to the substrate coated with collagen IV is carried out.
Measurement of the Adhesion of the Keratinocytes to the Type IV Collagen
The keratinocytes are inoculated into each well at a density of 93,000 cells/cm^2 in E 199 medium from Gibco, containing 2 mM L-glutamine from Gibco and 4 mg/ml of BSA (bovine serum albumin). After incubation for one hour at +4° C., the wells are rinsed with PBS, the adhering cells are then lyzed with 0.1 N sodium hydroxide solution and the cellular proteins are then quantified by means of the calorimetric method and bicinchoninic acid (BCA from Sigma).
A calibration is performed in parallel with BSA solubilized in 0.1 N sodium hydroxide solution, enabling the optical density (OD) values to be converted to micrograms (μg) of proteins per well.
These adhesion values between treated and untreated cells were compared by the 0.7 Student t-test at the p=0.05 threshold in order to assess their level of significance.

On to `[Cl-].[Cl-].[Mg+2]` [Magnesium chloride, magnesium chloride], for which the “A = adhesion in μg of protein per well (mean)” value by setting is: (0.25 mM) 4.32 μg of protein per well; (0.5 mM) 4.54 μg of protein per well; (1 mM) 4.57 μg of protein per well. For the same compound, for the setting “1 mM”, the “percentage increase in adhesion” value is reported as “+31%”.
As for `N[C@@H](CC(=O)[O-])C(=O)[O-].[Mg+2]` [Magnesium aspartate, magnesium aspartate], under “0.25 mM”, the “percentage increase in adhesion” value is recorded as “+54%” and the “A = adhesion in μg of protein per well (mean)” value is reported as 5.39 μg of protein per well.
